Reference: ChEMBL document CHEMBL1144627, “N-(3-(4-Hydroxyphenyl)-propenoyl)-amino acid tryptamides as SIRT2 inhibitors” (Bioorg Med Chem Lett, 2007)
pIC50: −log10 of the molar value.

Assays:
[1] = molecular target: T1, NAD-dependent protein deacetylase sirtuin-2 (Homo sapiens) (UniProt Q8IXJ6); assay: Inhibition of SIRT2 at 200 uM
T1 sequence (whole entry): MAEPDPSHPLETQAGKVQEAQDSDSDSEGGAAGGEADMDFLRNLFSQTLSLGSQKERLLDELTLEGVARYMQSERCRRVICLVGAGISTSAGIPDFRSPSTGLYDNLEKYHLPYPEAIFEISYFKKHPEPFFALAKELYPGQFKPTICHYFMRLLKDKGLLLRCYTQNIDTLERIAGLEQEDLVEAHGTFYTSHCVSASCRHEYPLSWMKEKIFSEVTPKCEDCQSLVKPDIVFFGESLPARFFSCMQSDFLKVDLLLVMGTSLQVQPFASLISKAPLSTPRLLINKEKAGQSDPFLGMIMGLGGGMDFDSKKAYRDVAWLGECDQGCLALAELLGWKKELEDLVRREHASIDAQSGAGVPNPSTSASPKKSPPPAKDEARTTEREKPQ

[2] = molecular target: T2, NAD-dependent protein deacetylase sirtuin-1 (Homo sapiens) (UniProt Q96EB6); assay: Inhibition of SIRT1 at 200 uM
T2 sequence (whole entry): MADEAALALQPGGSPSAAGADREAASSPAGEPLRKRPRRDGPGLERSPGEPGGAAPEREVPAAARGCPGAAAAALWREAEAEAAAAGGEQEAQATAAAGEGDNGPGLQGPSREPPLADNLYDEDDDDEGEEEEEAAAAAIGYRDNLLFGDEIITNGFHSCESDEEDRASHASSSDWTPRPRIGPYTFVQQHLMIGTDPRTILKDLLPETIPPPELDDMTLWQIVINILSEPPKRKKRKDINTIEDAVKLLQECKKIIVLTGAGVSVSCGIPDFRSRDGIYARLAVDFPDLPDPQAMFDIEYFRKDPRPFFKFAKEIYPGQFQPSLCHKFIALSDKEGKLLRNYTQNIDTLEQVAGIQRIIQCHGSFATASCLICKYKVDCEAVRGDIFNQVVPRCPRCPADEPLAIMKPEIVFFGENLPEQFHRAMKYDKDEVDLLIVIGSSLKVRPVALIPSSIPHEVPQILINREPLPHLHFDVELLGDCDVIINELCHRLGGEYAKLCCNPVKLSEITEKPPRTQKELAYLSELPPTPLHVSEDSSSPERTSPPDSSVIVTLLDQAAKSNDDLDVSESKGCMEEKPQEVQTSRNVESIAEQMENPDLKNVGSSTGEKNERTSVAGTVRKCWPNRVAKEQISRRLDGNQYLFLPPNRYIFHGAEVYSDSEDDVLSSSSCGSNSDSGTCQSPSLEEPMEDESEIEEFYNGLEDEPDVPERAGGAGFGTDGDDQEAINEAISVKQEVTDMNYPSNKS

[3] = molecular target: T3, NAD-dependent protein deacetylase sirtuin-2 (Homo sapiens, UniProt Q8IXJ6); assay: Inhibition of SIRT2
T3 sequence (Q8IXJ6 whole entry): T1 sequence (whole entry)

[4] = molecular target: T4, NAD-dependent protein deacetylase sirtuin-1 (Homo sapiens, UniProt Q96EB6); assay: Inhibition of SIRT1
T4 sequence (Q96EB6 whole entry): T2 sequence (whole entry)

| SMILES | inhibition [1] [%] | inhibition [2] [%] | pIC50 [3] | pIC50 [4] |
| --- | --- | --- | --- | --- |
| CC(C)(NC(=O)/C=C/c1ccc(OCc2ccccc2)cc1)C(=O)NCCc1c[nH]c2ccccc12 | 32.6 | 10.2 | – | – |
| O=C(/C=C/c1ccc(OCc2ccccc2)cc1)NC1(C(=O)NCCc2c[nH]c3ccccc23)CCNCC1 | 79.1 | 97 | 4.20 | 4.28 |
| NC(=O)C1CCCc2c1[nH]c1ccc(Cl)cc21 (stereo unspecified) | 89.4 | 98.9 | – | – |
| O=C(/C=C/c1ccc(O)cc1)NCC(=O)NCCc1c[nH]c2ccccc12 | 44.3 | 9.9 | – | – |
| O=C(/C=C/c1ccc(OCc2ccc(F)cc2)cc1)NC1(C(=O)NCCc2c[nH]c3ccc(F)cc23)CCNCC1 | – | 94.1 | – | 4.14 |

Next, values leading:

| inhibition [1] [%] | inhibition [2] [%] | pIC50 [3] | pIC50 [4] | SMILES |
| --- | --- | --- | --- | --- |
| 88.6 | 17.7 | 4.33 | – | C[C@H](NC(=O)/C=C/c1ccc(O)cc1)C(=O)NCCc1c[nH]c2ccccc12 |
| 83.3 | 6.6 | 4.30 | – | CC(C)(NC(=O)/C=C/c1ccc(O)cc1)C(=O)NCCc1c[nH]c2ccccc12 |
| 67.5 | 7 | 4.10 | – | CC(C)(NC(=O)/C=C/c1ccc(O)cc1)C(=O)NCCc1c[nH]c2ccc(F)cc12 |
| 8.5 | 3.2 | – | – | C[C@@H](NC(=O)/C=C/c1ccc(O)cc1)C(=O)NCCc1c[nH]c2ccccc12 |
| 55.4 | 10.3 | 4.00 | – | COc1ccc(/C=C/C(=O)NC(C)(C)C(=O)NCCc2c[nH]c3ccccc23)cc1 |
